Source: patent US12371428B2 (Exelixis, Inc., priority 2019, dated 2025)
Structures can show the parent of a compound that is named as a salt.

Legend:
[1] = biological target: Human MET (residues 956-1390) (Homo sapiens (Human), UniProt P08581); assay: Human Met kinase assay, HTRF KinEase (Example D-2); assay type: biochemical; settings: protocol of Example D-2 (other compounds); read-out: c-Met IC50
Method in brief: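 HTRF KinEase assay on MET residues 956-1390 (0.1 ng/well) in buffer with 5 mM MgCl2, 1 mM DTT and 1 mM MnCl2, with biotinylated peptide substrate, ATP at Km, 10 compound concentrations and 3% DMSO final, run 40 min at room temperature. The […] signal was normalized to DMSO and to 1 μM reference compound, and IC50 came from a 4-parameter logistic fit.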

[2] = biological target: Human MER (residues 528-999) (Homo sapiens (Human), UniProt Q12866); assay: Human Mer kinase assay, HTRF KinEase (Example C-2); assay type: biochemical; settings: protocol of Example C-2 (other compounds)
Method in brief: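 HTRF KinEase TK assay with MER 528-999 (1 ng/well) in enzymatic buffer plus 5 mM MgCl2 and 1 mM DTT, biotinylated peptide substrate and ATP at Km (40 μM), 3% DMSO final, 60 min at room temperature. Stopped with EDTA detection mix (SA-XL665, TK antibody-Eu3+), read at 665/620 nm after 60 min; IC50 from 10-point 4-parameter fit, normalized to DMSO and 1 μM reference.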

[3] = biological target: Human KDR (residues 790-1356) (Homo sapiens (Human), UniProt P35968); assay: Human KDR kinase assay, HTRF KinEase (Example B-2); assay type: biochemical; settings: protocol of Example B-2 (other compounds)
Method in brief: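 Ten compound concentrations (3% DMSO final) were pre-plated, then KDR (790-1356) with biotinylated peptide in Mg/Mn/DTT buffer was added; ATP at Km (4.0 μM) started a 40 min room-temperature reaction. Detection used Eu-TK antibody and SA-XL665 in EDTA buffer; activity normalized to DMSO and reference inhibitor, IC50 by logistic fit.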

[4] = biological target: Mer (phospho-Mer, MERTK-transfected 293A cells) (Homo sapiens (Human), UniProt Q12866); assay: Mer autophosphorylation ELISA in transient transfected 293A cells (Example H); assay type: cell-based; settings: cellular activity; Mer autophosphorylation ELISA in transient transfected 293A cells
Method in brief: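 MERTK-transfected 293A; 8-pt dose, 1 h, serum-free, 0.3% DMSO. Cold lysis with orthovanadate and protease/phosphatase inhibitors. Phospho-Mer by DuoSet IC ELISA vs phospho-Mer standard. IC50: 4-PL fit; DMSO = 100%, reference inhibitor = 0%.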

Chain of Human MER (residues 528-999) (Q12866 528-999): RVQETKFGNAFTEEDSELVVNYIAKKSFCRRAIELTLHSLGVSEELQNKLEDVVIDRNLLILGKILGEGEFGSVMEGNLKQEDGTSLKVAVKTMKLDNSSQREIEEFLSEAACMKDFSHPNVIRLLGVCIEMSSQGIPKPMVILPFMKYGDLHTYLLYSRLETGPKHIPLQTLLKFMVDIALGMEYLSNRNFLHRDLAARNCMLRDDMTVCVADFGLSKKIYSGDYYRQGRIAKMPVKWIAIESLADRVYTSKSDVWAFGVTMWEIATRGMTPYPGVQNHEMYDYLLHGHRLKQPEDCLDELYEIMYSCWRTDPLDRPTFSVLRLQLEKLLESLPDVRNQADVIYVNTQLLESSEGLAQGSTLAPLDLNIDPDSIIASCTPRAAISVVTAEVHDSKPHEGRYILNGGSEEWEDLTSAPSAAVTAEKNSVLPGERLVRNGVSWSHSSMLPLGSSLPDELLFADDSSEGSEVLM
Chain of Mer (phospho-Mer, MERTK-transfected 293A cells) (Q12866 21-999): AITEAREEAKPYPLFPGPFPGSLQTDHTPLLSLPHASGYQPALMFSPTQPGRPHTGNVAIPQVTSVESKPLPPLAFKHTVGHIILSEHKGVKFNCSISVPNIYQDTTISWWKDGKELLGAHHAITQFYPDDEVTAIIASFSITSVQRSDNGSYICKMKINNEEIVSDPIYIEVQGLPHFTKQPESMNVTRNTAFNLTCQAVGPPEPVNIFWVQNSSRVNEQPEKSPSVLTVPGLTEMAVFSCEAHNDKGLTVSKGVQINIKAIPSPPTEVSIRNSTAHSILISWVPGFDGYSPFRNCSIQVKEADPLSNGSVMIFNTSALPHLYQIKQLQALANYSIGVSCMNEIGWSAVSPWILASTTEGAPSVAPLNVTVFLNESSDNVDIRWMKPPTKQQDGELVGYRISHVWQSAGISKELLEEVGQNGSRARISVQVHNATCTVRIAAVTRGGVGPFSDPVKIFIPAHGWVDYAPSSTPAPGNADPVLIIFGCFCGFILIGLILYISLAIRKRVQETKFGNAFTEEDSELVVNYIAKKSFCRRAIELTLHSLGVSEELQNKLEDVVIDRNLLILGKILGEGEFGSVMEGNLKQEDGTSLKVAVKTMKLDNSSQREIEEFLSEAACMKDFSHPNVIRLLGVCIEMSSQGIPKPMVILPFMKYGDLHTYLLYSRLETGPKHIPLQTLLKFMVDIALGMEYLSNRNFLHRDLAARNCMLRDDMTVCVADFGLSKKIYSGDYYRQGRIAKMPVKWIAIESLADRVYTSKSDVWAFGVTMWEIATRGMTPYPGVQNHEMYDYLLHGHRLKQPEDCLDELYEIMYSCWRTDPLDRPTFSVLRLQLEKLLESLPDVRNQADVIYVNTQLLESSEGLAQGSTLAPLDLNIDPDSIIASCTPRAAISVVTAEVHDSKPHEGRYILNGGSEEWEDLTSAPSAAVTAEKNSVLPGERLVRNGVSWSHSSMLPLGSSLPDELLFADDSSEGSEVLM
Chain of Human MET (residues 956-1390) (P08581 956-1390): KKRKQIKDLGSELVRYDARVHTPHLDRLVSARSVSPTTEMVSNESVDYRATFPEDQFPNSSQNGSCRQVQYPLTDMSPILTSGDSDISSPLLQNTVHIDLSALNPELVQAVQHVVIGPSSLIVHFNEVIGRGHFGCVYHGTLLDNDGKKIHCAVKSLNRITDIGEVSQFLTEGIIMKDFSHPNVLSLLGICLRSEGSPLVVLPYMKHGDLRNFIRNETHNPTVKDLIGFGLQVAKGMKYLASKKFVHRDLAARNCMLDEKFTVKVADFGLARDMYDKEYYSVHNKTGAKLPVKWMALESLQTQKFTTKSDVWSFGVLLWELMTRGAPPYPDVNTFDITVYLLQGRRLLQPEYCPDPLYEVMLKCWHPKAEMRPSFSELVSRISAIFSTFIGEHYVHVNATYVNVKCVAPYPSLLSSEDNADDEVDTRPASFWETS
Chain of Human KDR (residues 790-1356) (P35968 790-1356): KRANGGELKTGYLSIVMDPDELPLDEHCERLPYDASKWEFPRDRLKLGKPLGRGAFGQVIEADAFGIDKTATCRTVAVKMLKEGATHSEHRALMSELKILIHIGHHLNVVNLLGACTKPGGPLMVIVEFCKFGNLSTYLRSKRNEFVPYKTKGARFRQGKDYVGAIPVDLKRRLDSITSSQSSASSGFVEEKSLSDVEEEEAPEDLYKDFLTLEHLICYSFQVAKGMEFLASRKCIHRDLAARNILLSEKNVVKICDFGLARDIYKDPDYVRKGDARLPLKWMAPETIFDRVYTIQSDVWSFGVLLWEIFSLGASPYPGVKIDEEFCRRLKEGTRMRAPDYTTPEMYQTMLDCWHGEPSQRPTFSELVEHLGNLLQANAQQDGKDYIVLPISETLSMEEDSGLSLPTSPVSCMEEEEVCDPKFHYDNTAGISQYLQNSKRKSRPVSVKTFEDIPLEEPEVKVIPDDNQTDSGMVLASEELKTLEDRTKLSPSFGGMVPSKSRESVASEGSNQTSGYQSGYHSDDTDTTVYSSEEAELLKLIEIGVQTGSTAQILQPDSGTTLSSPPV

COc1cc2nccc(Oc3ccc(NC(=O)c4nn(C(C)C)c(C)c(-c5ccc(F)cc5)c4=O)cc3F)c2nc1OC [Compound 364, N-[4-[(6,7-dimethoxy-1,5-naphthyridin-4-yl)oxy]-3-fluorophenyl]-5-(4-fluorophenyl)-6-methyl-4-oxo-1-propan-2-ylpyridazine-3-carboxamide]
IC50 [1]: < 0.1 µM | IC50 [2]: < 0.1 µM | IC50 [3]: < 0.1 µM | IC50 [4]: < 0.1 µM

COc1cnc2c(Oc3ccc(NC(=O)c4c(C)ccn(-c5ccc(F)cc5)c4=O)cc3)ccnc2c1 [Compound 300, 1-(4-Fluorophenyl)-N-[4-[(7-methoxy-1,5-naphthyridin-4-yl)oxy]phenyl]-4-methyl-2-oxopyridine-3-carboxamide]
IC50 [1]: 0.1 to 0.3 µM | IC50 [2]: < 0.1 µM | IC50 [3]: 0.1 to 0.3 µM | IC50 [4]: < 0.1 µM

COc1cc2nccc(Oc3ccc(NC(=O)c4cn(C)cc(-c5ccc(Cl)cc5)c4=O)cc3F)c2nc1OC [Compound 38, 5-(4-Chlorophenyl)-N-[4-[(6,7-dimethoxy-1,5-naphthyridin-4-yl)oxy]-3-fluorophenyl]-1-methyl-4-oxopyridine-3-carboxamide hydrochloride]
IC50 [1]: < 0.1 µM | IC50 [2]: < 0.1 µM | IC50 [3]: 0.1 to 0.3 µM | IC50 [4]: < 0.1 µM

COc1cc2nccc(Oc3ccc(NC(=O)c4cccn(-c5ccc(F)cc5)c4=O)cc3F)c2nc1OC [Compound 293, N-[4-[(6,7-Dimethoxy-1,5-naphthyridin-4-yl)oxy]-3-fluorophenyl]-1-(4-fluorophenyl)-2-oxopyridine-3-carboxamide]
IC50 [1]: < 0.1 µM | IC50 [2]: < 0.1 µM | IC50 [3]: < 0.1 µM | IC50 [4]: < 0.1 µM

Cc1ccc(C(=O)Nc2ccc(Oc3ccnc4cc(OCc5ccccc5)cnc34)c(F)c2)c(=O)n1-c1ccc(F)cc1 [Compound 275, 1-(4-Fluorophenyl)-N-[3-fluoro-4-[(7-phenylmethoxy-1,5-naphthyridin-4-yl)oxy]phenyl]-6-methyl-2-oxopyridine-3-carboxamide]
IC50 [1]: 0.1 to 0.3 µM | IC50 [2]: < 0.1 µM | IC50 [3]: 0.1 to 0.3 µM | IC50 [4]: < 0.1 µM

COc1cnc2c(Oc3ccc(NC(=O)c4cnc(C)n(-c5ccc(F)cc5)c4=O)cc3F)ccnc2c1 [Compound 265, N-[3-Fluoro-4-[(7-methoxy-1,5-naphthyridin-4-yl)oxy]phenyl]-1-(4-fluorophenyl)-2-methyl-6-oxopyrimidine-5-carboxamide]
IC50 [1]: < 0.1 µM | IC50 [2]: < 0.1 µM | IC50 [3]: > 0.3 µM | IC50 [4]: < 0.1 µM

COc1ccc2nccc(Oc3ccc(NC(=O)c4cn(C)c(C)c(-c5ccc(F)cc5)c4=O)cc3)c2n1 [Compound 356, 5-(4-fluorophenyl)-N-[4-[(6-methoxy-1,5-naphthyridin-4-yl)oxy]phenyl]-1,6-dimethyl-4-oxopyridine-3-carboxamide]
IC50 [1]: 0.1 to 0.3 µM | IC50 [2]: < 0.1 µM | IC50 [3]: > 0.3 µM | IC50 [4]: < 0.1 µM

COc1ccc2nccc(Oc3ccc(NC(=O)c4ccc(C)n(-c5ccc(F)cc5)c4=O)cc3F)c2c1 [Compound 346, N-[3-fluoro-4-(6-methoxyquinolin-4-yl)oxyphenyl]-1-(4-fluorophenyl)-6-methyl-2-oxopyridine-3-carboxamide]
IC50 [1]: < 0.1 µM | IC50 [2]: < 0.1 µM | IC50 [3]: 0.1 to 0.3 µM | IC50 [4]: < 0.1 µM

COc1ccc2nccc(Oc3ccc(NC(=O)c4cnc(C)c(-c5ccc(F)cc5)c4O)cc3)c2n1 [Compound 342, 5-(4-fluorophenyl)-4-hydroxy-N-[4-[(6-methoxy-1,5-naphthyridin-4-yl)oxy]phenyl]-6-methylpyridine-3-carboxamide]
IC50 [1]: < 0.1 µM | IC50 [2]: < 0.1 µM | IC50 [3]: 0.1 to 0.3 µM | IC50 [4]: < 0.1 µM

COc1ccc2nccc(Oc3ccc(NC(=O)c4ncc(C)n(-c5ccc(F)cc5C)c4=O)cc3F)c2n1 [Compound 394, N-[3-fluoro-4-[(6-methoxy-1,5-naphthyridin-4-yl)oxy]phenyl]-4-(4-fluoro-2-methylphenyl)-5-methyl-3-oxopyrazine-2-carboxamide]
IC50 [1]: < 0.1 µM | IC50 [2]: < 0.1 µM | IC50 [3]: > 0.3 µM | IC50 [4]: < 0.1 µM

COCc1c(-c2ccc(F)cc2)c(=O)c(C(=O)Nc2ccc(Oc3ccnc4cc(OC)cnc34)c(F)c2)cn1C [Compound 270, N-[3-Fluoro-4-[(7-methoxy-1,5-naphthyridin-4-yl)oxy]phenyl]-5-(4-fluorophenyl)-6-(methoxymethyl)-1-methyl-4-oxopyridine-3-carboxamide]
IC50 [1]: < 0.1 µM | IC50 [2]: < 0.1 µM | IC50 [3]: > 0.3 µM | IC50 [4]: < 0.1 µM

COc1cnc2c(Oc3ccc(NC(=O)c4c(C)cc(C)n(-c5ccc(F)cc5)c4=O)cc3F)ccnc2c1 [Compound 280, N-[3-Fluoro-4-[(7-methoxy-1,5-naphthyridin-4-yl)oxy]phenyl]-1-(4-fluorophenyl)-4,6-dimethyl-2-oxopyridine-3-carboxamide]
IC50 [1]: < 0.1 µM | IC50 [2]: < 0.1 µM | IC50 [3]: < 0.1 µM | IC50 [4]: < 0.1 µM

COc1cc2nccc(Oc3ccc(NC(=O)c4c(C)cc(C)n(-c5ccc(F)cc5C)c4=O)cc3F)c2nc1OC [Compound 298, N-[4-[(6,7-Dimethoxy-1,5-naphthyridin-4-yl)oxy]-3-fluorophenyl]-1-(4-fluoro-2-methylphenyl)-4,6-dimethyl-2-oxopyridine-3-carboxamide]
IC50 [1]: 0.1 to 0.3 µM | IC50 [2]: < 0.1 µM | IC50 [3]: < 0.1 µM | IC50 [4]: < 0.1 µM

Cc1nc(C)c(-c2ccc(F)cc2)c(O)c1C(=O)Nc1ccc(Oc2ccnc3cc(OCc4ccccc4)cnc23)c(F)c1 [Compound 277, 5-(4-Fluorophenyl)-N-[3-fluoro-4-[(7-phenylmethoxy-1,5-naphthyridin-4-yl)oxy]phenyl]-4-hydroxy-2,6-dimethylpyridine-3-carboxamide]
IC50 [1]: < 0.1 µM | IC50 [2]: < 0.1 µM | IC50 [3]: 0.1 to 0.3 µM | IC50 [4]: < 0.1 µM

CCn1cc(C(=O)Nc2ccc(Oc3ccnc4cc(OC)cnc34)c(F)c2)c(=O)c(-c2ccc(F)cc2)c1CO [Compound 273, 1-Ethyl-N-[3-fluoro-4-[(7-methoxy-1,5-naphthyridin-4-yl)oxy]phenyl]-5-(4-fluorophenyl)-6-(hydroxymethyl)-4-oxopyridine-3-carboxamide]
IC50 [1]: < 0.1 µM | IC50 [2]: < 0.1 µM | IC50 [3]: > 0.3 µM | IC50 [4]: < 0.1 µM

COc1ccc2nccc(Oc3ccc(NC(=O)c4nccn(-c5ccc(F)cc5)c4=O)cc3)c2n1 [Compound 383, 4-(4-fluorophenyl)-N-[4-[(6-methoxy-1,5-naphthyridin-4-yl)oxy]phenyl]-3-oxopyrazine-2-carboxamide]
IC50 [1]: < 0.1 µM | IC50 [2]: < 0.1 µM | IC50 [3]: > 0.3 µM | IC50 [4]: < 0.1 µM

COc1ccc2nccc(Oc3ccc(NC(=O)c4c(C)nc(C)c(-c5ccc(F)cc5)c4O)cc3F)c2c1 [Compound 345, N-[3-fluoro-4-(6-methoxyquinolin-4-yl)oxyphenyl]-5-(4-fluorophenyl)-4-hydroxy-2,6-dimethylpyridine-3-carboxamide]
IC50 [1]: < 0.1 µM | IC50 [2]: < 0.1 µM | IC50 [3]: 0.1 to 0.3 µM | IC50 [4]: < 0.1 µM

COc1cc2nccc(Oc3ccc(NC(=O)c4cn(C)cc(-c5c(C)cc(F)cc5C)c4=O)cc3F)c2nc1OC [Compound 268, N-[4-[(6,7-Dimethoxy-1,5-naphthyridin-4-yl)oxy]-3-fluorophenyl]-5-(4-fluoro-2,6-dimethylphenyl)-1-methyl-4-oxopyridine-3-carboxamide]
IC50 [1]: < 0.1 µM | IC50 [2]: < 0.1 µM | IC50 [3]: > 0.3 µM | IC50 [4]: < 0.1 µM
